In US20060009415A1, “Corneal epithelial migration promoter” (priority 2000, published 2006):

Test system: corneal epithelial layer of rabbit cornea blocks
Experiment: Corneal epithelial migration in rabbit cornea tissue culture (method of Nishida et al.)
Format: cell-based, male Japanese white rabbits
Conditions: for Corneal Epithelial Migration Rate (%): 24 h, 37.5° C., 5% CO2, control set at 100%; for corneal epithelial migration promoting effect (in words): summary of Table 1, rabbit cornea tissue culture
Procedure: Using cornea specimen s collected from male Japanese white rabbits, the corneal epithelial migration length was used as an index in studying the cornea tissue culturing system according to the method of Nishida, et al. (J. Cell Biol., 97, 1653-1657 (1983)). Cornea blocks (6 specimens for each group) cut from rabbit cornea pieces were cultured in a culture solution (TCM-199) containing an invention compound at 37.5° C. and 5% CO2 for 24 h. After culturing, the cornea blocks were fixed in an ethanol/glacial acetic acid (95:5 by volume) mixture solution, followed by embedding with paraffin to form slices. After removal of the paraffin, the slices were subjected to hematoxylin-eosin staining, and the length of migration of the corneal epithelial layer was observed using a microscope. As a control, culturing was also performed using a culture solution not containing an invention compound.

[1] = compound 100 μM in culture solution (TCM-199)
[2] = compound 10 μM in culture solution (TCM-199)

In the case of `O=c1ccn([C@@H]2O[C@H](COP(=O)([O-])OP(=O)([O-])OP(=O)([O-])O)[C@@H](O)[C@H]2O)c(=O)[nH]1.[Na+].[Na+].[Na+]` [UTP-Na, uridine 5′-triphosphate trisodium], the “Corneal Epithelial Migration Rate (%)” value [1] is reported as 123.1% and the “corneal epithelial migration promoting effect (in words)” value is reported as “significant corneal epithelial migration promoting effects”.
`O=c1ccn([C@@H]2O[C@H](COP(=O)([O-])OP(=O)([O-])OP(=O)([O-])OP(=O)([O-])OC[C@H]3O[C@@H](n4ccc(=O)[nH]c4=O)[C@H](O)[C@@H]3O)[C@@H](O)[C@H]2O)c(=O)[nH]1.[Na+].[Na+].[Na+].[Na+]` [DUTP-Na, P^1, P^4-di(uridine-5′)tetraphosphate tetrasodium] was tested, and the “Corneal Epithelial Migration Rate (%)” value [1] was 118.9% and the “corneal epithelial migration promoting effect (in words)” value was “significant corneal epithelial migration promoting effects”.
With `Nc1ncnc2c1ncn2[C@@H]1O[C@H](COP(=O)([O-])OP(=O)([O-])O)[C@@H](O)[C@H]1O.[Na+].[Na+]` [ADP-Na, adenosine 5′-diphosphate disodium] the “Corneal Epithelial Migration Rate (%)” value [2] was 116.1% and the “corneal epithelial migration promoting effect (in words)” value was “significant corneal epithelial migration promoting effects”.
`Nc1ncnc2c1ncn2[C@@H]1O[C@H](COP(=O)([O-])OP(=O)([O-])OP(=O)([O-])O)[C@@H](O)[C@H]1O.[Na+].[Na+].[Na+]` [ATP-Na, adenosine 5′-triphosphate trisodium] was tested, and the “Corneal Epithelial Migration Rate (%)” value [2] was 119.3% and the “corneal epithelial migration promoting effect (in words)” value was “significant corneal epithelial migration promoting effects”.
In the case of `O=c1ccn([C@@H]2O[C@H](COP(=O)([O-])OP(=O)([O-])O)[C@@H](O)[C@H]2O)c(=O)[nH]1.[Na+].[Na+]` [UDP-Na, uridine 5′-diphosphate di-sodium], the “Corneal Epithelial Migration Rate (%)” value [1] is reported as 115.3% and the “corneal epithelial migration promoting effect (in words)” value is reported as “significant corneal epithelial migration promoting effects”.
